# Experiments:
# Experiment in all cases: Test F preemergence/postemergence greenhouse plant response rating 0 to 100
# [1] = test system: wild oat; type: in vivo, Avena fatua; settings: POSTEMERGENCE, 0 to 100 scale; for Wild oat (1) plant response rating: stage (1) two to three leaves; for Wild oat (2) plant response rating: stage (2) approximately four leaves or initial tillering
# Source text: (§1) Compounds evaluated in this test were formulated in a non-phytoxic solvent and applied to the soil surface before plant seedlings emerged (preemergence application) and to plants that were in the one-to-four leaf stage (postemergence application). A sandy loam soil was used for the preemergence test while a mixture of sandy loam soil and greenhouse potting mix in a 60:40 ratio was used for the postemergence test. Test compounds were applied within approximately one day after planting seeds for the preemergence test. Plantings of these crops and weed species were adjusted to produce plants of appropriate size for the postemergence test. All plant species were grown using normal greenhouse practices. Crop and weed species include winter barley (Hordeum vulgare cv. ‘Igri’), blackgrass (Alopecurus myosuroides), chickweed (Stellaria media), downy brome (Bromus tectorum), field violet (Viola arvensis), galium (Galium aparine), green foxtail (Setaria viridis), kochia (Kochia scoparia), lambsquarters (Chenopodium album), speedwell (Veronica persica), rape (Brassica napus), ryegrass (Lolium multiflorum), sugar beet (Beta vulgaris cv. ‘USl’), sunflower (Helianthus annuus cv. ‘Russian Giant’), spring wheat (Triticum aestivum cv. ‘ERA’), winter wheat (Triticum aestivum cv. ‘Talent’), wild buckwheat (Polygonum convolvulus), wild mustard (Sinapis arvensis), wild oat (Avena fatua), and wild radish (Raphanus raphanistrum). Blackgrass, galium and wild oat were treated at two growth stages. […] Treated plants and untreated controls were maintained in a greenhouse for approximately 21 to 28 days, after which all treated plants were compared to untreated controls and visually evaluated. […] A dash response (-) means no test result.
# [2] = test system: ryegrass; type: in vivo, Lolium multiflorum; settings: POSTEMERGENCE, 0 to 100 scale
# Source text: as §1
# [3] = test system: rape; type: in vivo, Brassica napus; settings: POSTEMERGENCE, 0 to 100 scale
# Source text: as §1
# [4] = test system: downy brome; type: in vivo, Bromus tectorum; settings: POSTEMERGENCE, 0 to 100 scale
# Source text: as §1
# [5] = test system: field violet; type: in vivo, Viola arvensis; settings: POSTEMERGENCE, 0 to 100 scale
# Source text: as §1
# [6] = test system: wild mustard; type: in vivo, Sinapis arvensis; settings: POSTEMERGENCE, 0 to 100 scale
# Source text: as §1
# [7] = test system: winter wheat; type: in vivo, Triticum aestivum cv. ‘Talent’; settings: POSTEMERGENCE, 0 to 100 scale
# Source text: as §1
# [8] = test system: green foxtail; type: in vivo, Setaria viridis; settings: POSTEMERGENCE, 0 to 100 scale
# Source text: as §1
# [9] = test system: wild buckwheat; type: in vivo, Polygonum convolvulus; settings: POSTEMERGENCE, 0 to 100 scale
# Source text: as §1
# [10] = test system: chickweed; type: in vivo, Stellaria media; settings: POSTEMERGENCE, 0 to 100 scale
# Source text: as §1
# [11] = test system: sugar beet; type: in vivo, Beta vulgaris cv. ‘USl’; settings: POSTEMERGENCE, 0 to 100 scale
# Source text: as §1
# [12] = test system: sunflower; type: in vivo, Helianthus annuus cv. ‘Russian Giant’; settings: POSTEMERGENCE, 0 to 100 scale
# Source text: as §1
# [13] = test system: galium; type: in vivo, Galium aparine; settings: POSTEMERGENCE, 0 to 100 scale; for Galium (1) plant response rating: stage (1) two to three leaves; for Galium (2) plant response rating: stage (2) approximately four leaves or initial tillering
# Source text: as §1
# [14] = test system: kochia; type: in vivo, Kochia scoparia; settings: POSTEMERGENCE, 0 to 100 scale
# Source text: as §1
compound,measurement,setting,value
C#CC(C)N1C(=O)COc2cc(F)c(-c3nn4c(c3Cl)CCCC4)cc21 (centres unmarked) [Compound 50],Wild oat (1) plant response rating,[1]; Rate 16 g/ha,0
same,Wild oat (2) plant response rating,[1]; Rate 16 g/ha,0
same,Wild oat (1) plant response rating,[1]; Rate 32 g/ha,0
same,Wild oat (2) plant response rating,[1]; Rate 32 g/ha,0
same,Wild oat (1) plant response rating,[1]; Rate 64 g/ha,0
same,Wild oat (2) plant response rating,[1]; Rate 64 g/ha,0
same,Wild oat (1) plant response rating,[1]; Rate 125 g/ha,0
same,Wild oat (2) plant response rating,[1]; Rate 125 g/ha,0
same,Ryegrass plant response rating,[2]; Rate 16 g/ha,0
same,Ryegrass plant response rating,[2]; Rate 32 g/ha,0
same,Ryegrass plant response rating,[2]; Rate 64 g/ha,0
same,Ryegrass plant response rating,[2]; Rate 125 g/ha,10
same,Rape plant response rating,[3]; Rate 16 g/ha,100
same,Rape plant response rating,[3]; Rate 32 g/ha,100
same,Rape plant response rating,[3]; Rate 64 g/ha,100
same,Rape plant response rating,[3]; Rate 125 g/ha,100
same,Downy brome plant response rating,[4]; Rate 16 g/ha,0
same,Downy brome plant response rating,[4]; Rate 32 g/ha,0
same,Downy brome plant response rating,[4]; Rate 64 g/ha,0
same,Downy brome plant response rating,[4]; Rate 125 g/ha,0
same,Field violet plant response rating,[5]; Rate 16 g/ha,100
same,Field violet plant response rating,[5]; Rate 32 g/ha,100
same,Field violet plant response rating,[5]; Rate 64 g/ha,100
same,Field violet plant response rating,[5]; Rate 125 g/ha,100
same,Wild mustard plant response rating,[6]; Rate 16 g/ha,70
same,Wild mustard plant response rating,[6]; Rate 32 g/ha,70
same,Wild mustard plant response rating,[6]; Rate 64 g/ha,100
same,Wild mustard plant response rating,[6]; Rate 125 g/ha,100
same,Wheat (Winter) plant response rating,[7]; Rate 16 g/ha,0
same,Wheat (Winter) plant response rating,[7]; Rate 32 g/ha,0
same,Wheat (Winter) plant response rating,[7]; Rate 64 g/ha,0
same,Wheat (Winter) plant response rating,[7]; Rate 125 g/ha,0
same,Green foxtail plant response rating,[8]; Rate 16 g/ha,0
same,Green foxtail plant response rating,[8]; Rate 32 g/ha,0
same,Green foxtail plant response rating,[8]; Rate 64 g/ha,50
same,Green foxtail plant response rating,[8]; Rate 125 g/ha,50
same,Wild buckwheat plant response rating,[9]; Rate 16 g/ha,40
same,Wild buckwheat plant response rating,[9]; Rate 32 g/ha,100
same,Wild buckwheat plant response rating,[9]; Rate 64 g/ha,100
same,Wild buckwheat plant response rating,[9]; Rate 125 g/ha,100
same,Chickweed plant response rating,[10]; Rate 16 g/ha,70
same,Chickweed plant response rating,[10]; Rate 32 g/ha,100
same,Chickweed plant response rating,[10]; Rate 64 g/ha,100
same,Chickweed plant response rating,[10]; Rate 125 g/ha,100
same,Sugar beet plant response rating,[11]; Rate 16 g/ha,100
same,Sugar beet plant response rating,[11]; Rate 32 g/ha,100
same,Sugar beet plant response rating,[11]; Rate 64 g/ha,100
same,Sugar beet plant response rating,[11]; Rate 125 g/ha,100
same,Sunflower plant response rating,[12]; Rate 16 g/ha,40
same,Sunflower plant response rating,[12]; Rate 32 g/ha,60
same,Sunflower plant response rating,[12]; Rate 64 g/ha,60
same,Sunflower plant response rating,[12]; Rate 125 g/ha,100
same,Galium (1) plant response rating,[13]; Rate 16 g/ha,100
same,Galium (2) plant response rating,[13]; Rate 16 g/ha,100
same,Galium (1) plant response rating,[13]; Rate 32 g/ha,100
same,Galium (2) plant response rating,[13]; Rate 32 g/ha,100
same,Galium (1) plant response rating,[13]; Rate 64 g/ha,100
same,Galium (2) plant response rating,[13]; Rate 64 g/ha,100
same,Galium (1) plant response rating,[13]; Rate 125 g/ha,100
same,Galium (2) plant response rating,[13]; Rate 125 g/ha,100
same,Kochia plant response rating,[14]; Rate 16 g/ha,100
same,Kochia plant response rating,[14]; Rate 32 g/ha,100
same,Kochia plant response rating,[14]; Rate 64 g/ha,100
same,Kochia plant response rating,[14]; Rate 125 g/ha,100
C#CC(C)Oc1cc(-c2nn3c(c2Cl)CCCC3)c(F)cc1Cl (centres unmarked) [Compound 36],Wild oat (1) plant response rating,[1]; Rate 4 g/ha,10
same,Wild oat (2) plant response rating,[1]; Rate 4 g/ha,10
same,Wild oat (1) plant response rating,[1]; Rate 8 g/ha,20
same,Wild oat (2) plant response rating,[1]; Rate 8 g/ha,10
same,Wild oat (1) plant response rating,[1]; Rate 16 g/ha,20
same,Wild oat (2) plant response rating,[1]; Rate 16 g/ha,20
same,Wild oat (1) plant response rating,[1]; Rate 32 g/ha,20
same,Wild oat (2) plant response rating,[1]; Rate 32 g/ha,20
same,Ryegrass plant response rating,[2]; Rate 4 g/ha,0
same,Ryegrass plant response rating,[2]; Rate 8 g/ha,10
same,Ryegrass plant response rating,[2]; Rate 16 g/ha,20
same,Ryegrass plant response rating,[2]; Rate 32 g/ha,35
same,Rape plant response rating,[3]; Rate 8 g/ha,40
same,Rape plant response rating,[3]; Rate 16 g/ha,100
same,Rape plant response rating,[3]; Rate 32 g/ha,100
same,Downy brome plant response rating,[4]; Rate 4 g/ha,0
same,Downy brome plant response rating,[4]; Rate 8 g/ha,0
same,Downy brome plant response rating,[4]; Rate 16 g/ha,0
same,Downy brome plant response rating,[4]; Rate 32 g/ha,5
same,Field violet plant response rating,[5]; Rate 4 g/ha,100
same,Field violet plant response rating,[5]; Rate 8 g/ha,100
same,Field violet plant response rating,[5]; Rate 16 g/ha,100
same,Field violet plant response rating,[5]; Rate 32 g/ha,100
same,Wild mustard plant response rating,[6]; Rate 4 g/ha,100
same,Wild mustard plant response rating,[6]; Rate 8 g/ha,100
same,Wild mustard plant response rating,[6]; Rate 16 g/ha,100
same,Wild mustard plant response rating,[6]; Rate 32 g/ha,100
same,Wheat (Winter) plant response rating,[7]; Rate 4 g/ha,20
same,Wheat (Winter) plant response rating,[7]; Rate 8 g/ha,20
same,Wheat (Winter) plant response rating,[7]; Rate 16 g/ha,20
same,Wheat (Winter) plant response rating,[7]; Rate 32 g/ha,50
same,Green foxtail plant response rating,[8]; Rate 4 g/ha,0
same,Green foxtail plant response rating,[8]; Rate 8 g/ha,40
same,Green foxtail plant response rating,[8]; Rate 16 g/ha,50
same,Green foxtail plant response rating,[8]; Rate 32 g/ha,50
same,Wild buckwheat plant response rating,[9]; Rate 16 g/ha,100
same,Wild buckwheat plant response rating,[9]; Rate 32 g/ha,100
same,Chickweed plant response rating,[10]; Rate 4 g/ha,50
same,Chickweed plant response rating,[10]; Rate 8 g/ha,100
same,Chickweed plant response rating,[10]; Rate 16 g/ha,100
same,Chickweed plant response rating,[10]; Rate 32 g/ha,100
same,Sugar beet plant response rating,[11]; Rate 4 g/ha,100
same,Sugar beet plant response rating,[11]; Rate 8 g/ha,100
same,Sugar beet plant response rating,[11]; Rate 16 g/ha,100
same,Sugar beet plant response rating,[11]; Rate 32 g/ha,100
same,Sunflower plant response rating,[12]; Rate 4 g/ha,0
same,Sunflower plant response rating,[12]; Rate 8 g/ha,40
same,Sunflower plant response rating,[12]; Rate 16 g/ha,50
same,Sunflower plant response rating,[12]; Rate 32 g/ha,60
same,Galium (1) plant response rating,[13]; Rate 4 g/ha,20
same,Galium (2) plant response rating,[13]; Rate 4 g/ha,40
same,Galium (1) plant response rating,[13]; Rate 8 g/ha,50
same,Galium (2) plant response rating,[13]; Rate 8 g/ha,60
same,Galium (1) plant response rating,[13]; Rate 16 g/ha,50
same,Galium (2) plant response rating,[13]; Rate 16 g/ha,60
same,Galium (1) plant response rating,[13]; Rate 32 g/ha,60
same,Galium (2) plant response rating,[13]; Rate 32 g/ha,70
same,Kochia plant response rating,[14]; Rate 4 g/ha,20
same,Kochia plant response rating,[14]; Rate 8 g/ha,60
same,Kochia plant response rating,[14]; Rate 16 g/ha,60
same,Kochia plant response rating,[14]; Rate 32 g/ha,100

# From patent US6358885B1, “Substituted phenylheterocyclic herbicides” (Mississippi State University, priority 1992, dated 2002)
